# From the supplement of paper PMC10307832
# Legend:
# Experiment in all cases: relative viability (nuclei count vs DMSO), 5 days (fraction); higher = more cells survive
# NCI-H647 = system: NCI-H647
# Procedure, shortened: (§1)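 Values are medians from duplicate plates. Each reflects relative viability, defined as the nuclei count of treated wells over that of vehicle wells. Lung cancer cell lines in 1536-well plates were pin-tool dosed one day after seeding with one drug alone or with a fixed anchor-drug dose plus five library-drug doses (not always all listed) in √10 steps, then fixed, stained and imaged at 4× after 5 days.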
# CAL-12T = system: CAL-12T
# Procedure, shortened: as §1
# NCI-H1395 = system: NCI-H1395
# Procedure, shortened: as §1
# COR-L23 = system: COR-L23
# Procedure, shortened: as §1
# NCI-H2170 = system: NCI-H2170
# Procedure, shortened: as §1
# NCI-H650 = system: NCI-H650
# Procedure, shortened: as §1
# NCI-H2023 = system: NCI-H2023
# Procedure, shortened: as §1
# LXF-289 = system: LXF-289
# Procedure, shortened: as §1
# A-427 = system: A-427
# Procedure, shortened: as §1
# NCI-H1975 = system: NCI-H1975
# Procedure, shortened: as §1
# EPLC-272H = system: EPLC-272H
# Procedure, shortened: as §1
# HOP-62 = system: HOP-62
# Procedure, shortened: as §1
# RERF-LC-KJ = system: RERF-LC-KJ
# Procedure, shortened: as §1
# NCI-H596 = system: NCI-H596
# Procedure, shortened: as §1
# NCI-H3122 = system: NCI-H3122
# Procedure, shortened: as §1
# PC-14 = system: PC-14
# Procedure, shortened: as §1
# SK-MES-1 = system: SK-MES-1
# Procedure, shortened: as §1
# NCI-H1651 = system: NCI-H1651
# Procedure, shortened: as §1
# NCI-H1993 = system: NCI-H1993
# Procedure, shortened: as §1
# LCLC-103H = system: LCLC-103H
# Procedure, shortened: as §1
# NCI-H2085 = system: NCI-H2085
# Procedure, shortened: as §1
# COR-L 105 = system: COR-L 105
# Procedure, shortened: as §1
# NCI-H2087 = system: NCI-H2087
# Procedure, shortened: as §1
smiles,measurement,setting,value
O=C(O)CCCCC(CCSCc1ccccc1)SCc1ccccc1 (stereo not given) [CPI-613] + COc1cc2c(Oc3ccc(NC(=O)C4(C(=O)Nc5ccc(F)cc5)CC4)cc3F)ccnc2cc1OCCCN1CCOCC1 [Foretinib] (partner 0.25 µM),relative viability,NCI-H647; first compound 5 µM,0.992
same,relative viability,NCI-H647; first compound 15.81 µM,1.2
same,relative viability,NCI-H647; first compound 50 µM,1.15
same,relative viability,NCI-H647; first compound 158.11 µM,0.34
same,relative viability,NCI-H647; first compound 500 µM,0.0186
same,relative viability,CAL-12T; first compound 5 µM,0.981
same,relative viability,CAL-12T; first compound 15.81 µM,0.89
same,relative viability,CAL-12T; first compound 50 µM,1.11
same,relative viability,CAL-12T; first compound 158.11 µM,0.142
same,relative viability,CAL-12T; first compound 500 µM,0.015
same,relative viability,NCI-H1395; first compound 5 µM,0.973
same,relative viability,NCI-H1395; first compound 15.81 µM,0.971
same,relative viability,NCI-H1395; first compound 50 µM,0.916
same,relative viability,NCI-H1395; first compound 158.11 µM,0.94
same,relative viability,NCI-H1395; first compound 500 µM,0.961
same,relative viability,COR-L23; first compound 5 µM,0.983
same,relative viability,COR-L23; first compound 15.81 µM,0.995
same,relative viability,COR-L23; first compound 50 µM,0.714
same,relative viability,COR-L23; first compound 158.11 µM,0.614
same,relative viability,COR-L23; first compound 500 µM,0.0368
same,relative viability,NCI-H2170; first compound 5 µM,0.767
same,relative viability,NCI-H2170; first compound 15.81 µM,0.906
same,relative viability,NCI-H2170; first compound 50 µM,0.929
same,relative viability,NCI-H2170; first compound 158.11 µM,0.795
same,relative viability,NCI-H2170; first compound 500 µM,0.139
same,relative viability,NCI-H650; first compound 5 µM,0.947
same,relative viability,NCI-H650; first compound 15.81 µM,1
same,relative viability,NCI-H650; first compound 50 µM,0.979
same,relative viability,NCI-H650; first compound 158.11 µM,0.836
same,relative viability,NCI-H650; first compound 500 µM,0.806
same,relative viability,NCI-H2023; first compound 5 µM,0.704
same,relative viability,NCI-H2023; first compound 15.81 µM,0.719
same,relative viability,NCI-H2023; first compound 50 µM,0.875
same,relative viability,NCI-H2023; first compound 158.11 µM,0.0718
same,relative viability,NCI-H2023; first compound 500 µM,0.0092
same,relative viability,LXF-289; first compound 5 µM,0.974
same,relative viability,LXF-289; first compound 15.81 µM,0.919
same,relative viability,LXF-289; first compound 50 µM,0.898
same,relative viability,LXF-289; first compound 158.11 µM,0.226
same,relative viability,LXF-289; first compound 500 µM,0.0507
same,relative viability,A-427; first compound 5 µM,1.14
same,relative viability,A-427; first compound 15.81 µM,1.11
same,relative viability,A-427; first compound 50 µM,0.86
same,relative viability,A-427; first compound 158.11 µM,0.526
same,relative viability,A-427; first compound 500 µM,0.131
same,relative viability,NCI-H1975; first compound 5 µM,0.943
same,relative viability,NCI-H1975; first compound 15.81 µM,0.964
same,relative viability,NCI-H1975; first compound 50 µM,0.963
same,relative viability,NCI-H1975; first compound 158.11 µM,0.713
same,relative viability,NCI-H1975; first compound 500 µM,0.151
same,relative viability,EPLC-272H; first compound 5 µM,0.613
same,relative viability,EPLC-272H; first compound 15.81 µM,0.597
same,relative viability,EPLC-272H; first compound 50 µM,0.69
same,relative viability,EPLC-272H; first compound 158.11 µM,0.158
same,relative viability,EPLC-272H; first compound 500 µM,0.0081
same,relative viability,HOP-62; first compound 5 µM,1.06
same,relative viability,HOP-62; first compound 15.81 µM,1.04
same,relative viability,HOP-62; first compound 50 µM,1.11
same,relative viability,HOP-62; first compound 158.11 µM,0.39
same,relative viability,HOP-62; first compound 500 µM,0.231
same,relative viability,RERF-LC-KJ; first compound 5 µM,0.878
same,relative viability,RERF-LC-KJ; first compound 15.81 µM,0.763
same,relative viability,RERF-LC-KJ; first compound 50 µM,0.889
same,relative viability,RERF-LC-KJ; first compound 158.11 µM,0.882
same,relative viability,RERF-LC-KJ; first compound 500 µM,0.851
same,relative viability,NCI-H596; first compound 5 µM,0.862
same,relative viability,NCI-H596; first compound 15.81 µM,0.969
same,relative viability,NCI-H596; first compound 50 µM,0.813
same,relative viability,NCI-H596; first compound 158.11 µM,0.592
same,relative viability,NCI-H596; first compound 500 µM,0.0375
same,relative viability,NCI-H3122; first compound 5 µM,0.989
same,relative viability,NCI-H3122; first compound 15.81 µM,0.895
same,relative viability,NCI-H3122; first compound 50 µM,0.971
same,relative viability,NCI-H3122; first compound 158.11 µM,0.858
same,relative viability,NCI-H3122; first compound 500 µM,0.0742
same,relative viability,PC-14; first compound 5 µM,0.953
same,relative viability,PC-14; first compound 15.81 µM,0.862
same,relative viability,PC-14; first compound 50 µM,0.852
same,relative viability,PC-14; first compound 158.11 µM,0.845
same,relative viability,PC-14; first compound 500 µM,0.991
same,relative viability,SK-MES-1; first compound 5 µM,0.999
same,relative viability,SK-MES-1; first compound 15.81 µM,0.901
same,relative viability,SK-MES-1; first compound 50 µM,0.843
same,relative viability,SK-MES-1; first compound 158.11 µM,0.831
same,relative viability,SK-MES-1; first compound 500 µM,0.84
same,relative viability,NCI-H1651; first compound 5 µM,0.794
same,relative viability,NCI-H1651; first compound 15.81 µM,0.838
same,relative viability,NCI-H1651; first compound 50 µM,0.974
same,relative viability,NCI-H1651; first compound 158.11 µM,0.295
same,relative viability,NCI-H1651; first compound 500 µM,0.088
same,relative viability,NCI-H1993; first compound 5 µM,0.829
same,relative viability,NCI-H1993; first compound 15.81 µM,0.78
same,relative viability,NCI-H1993; first compound 50 µM,0.961
same,relative viability,NCI-H1993; first compound 158.11 µM,0.509
same,relative viability,NCI-H1993; first compound 500 µM,0.452
same,relative viability,LCLC-103H; first compound 5 µM,0.744
same,relative viability,LCLC-103H; first compound 15.81 µM,0.757
same,relative viability,LCLC-103H; first compound 50 µM,0.805
same,relative viability,LCLC-103H; first compound 158.11 µM,0.174
same,relative viability,LCLC-103H; first compound 500 µM,0.243
same,relative viability,NCI-H2085; first compound 5 µM,0.767
same,relative viability,NCI-H2085; first compound 15.81 µM,0.927
same,relative viability,NCI-H2085; first compound 50 µM,0.933
same,relative viability,NCI-H2085; first compound 158.11 µM,0.286
same,relative viability,NCI-H2085; first compound 500 µM,0.0979
same,relative viability,COR-L 105; first compound 5 µM,1.11
same,relative viability,COR-L 105; first compound 15.81 µM,1.03
same,relative viability,COR-L 105; first compound 50 µM,1.02
same,relative viability,COR-L 105; first compound 158.11 µM,0.508
same,relative viability,COR-L 105; first compound 500 µM,0.16
same,relative viability,NCI-H2087; first compound 5 µM,1.09
same,relative viability,NCI-H2087; first compound 15.81 µM,1.11
same,relative viability,NCI-H2087; first compound 50 µM,1.05
same,relative viability,NCI-H2087; first compound 158.11 µM,0.0825
same,relative viability,NCI-H2087; first compound 500 µM,0.0183
